Data published in PubChem BioAssay AID1963432 (Molecular Pharmacology Branch, DTP, NCI, 2024).
Values belong to the compound of their own block, whether it stands above or below them.

Test system: SYO-1 complex spheroid growth, percent test/control
Assay: Anticancer human tumor SYO-1 cell line growth inhibition [Asc];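 note: compound exposure lasted 7 days after spheroids grew 3 days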;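 for viability, T/C: 100% = DMSO vehicle control viability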
Details: for IC50: curve of first compound; for viability, T/C: stronger effect = lower value
How it was run: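 Complex solid-tumor spheroids incorporating human endothelial and mesenchymal stem cells received single agents or combinations over half-log dilution ranges anchored to clinical Cmax.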

[1] = second compound 0.0316 µM, first compound 0.00316 µM
[2] = second compound 0.0316 µM, first compound 0.01 µM
[3] = second compound 0.0316 µM, first compound 0.0316 µM
[4] = second compound 0.0316 µM, first compound 0.1 µM
[5] = second compound 0.0316 µM, first compound 0.316 µM
[6] = second compound 0.0316 µM, first compound 1 µM
[7] = second compound 0.1 µM, first compound 0.00316 µM
[8] = second compound 0.1 µM, first compound 0.01 µM
[9] = second compound 0.1 µM, first compound 0.0316 µM
[10] = second compound 0.1 µM, first compound 0.1 µM
[11] = second compound 0.1 µM, first compound 0.316 µM
[12] = second compound 0.1 µM, first compound 1 µM
[13] = second compound 0.316 µM, first compound 0.00316 µM
[14] = second compound 0.316 µM, first compound 0.01 µM
[15] = second compound 0.316 µM, first compound 0.0316 µM
[16] = second compound 0.316 µM, first compound 0.1 µM
[17] = second compound 0.316 µM, first compound 0.316 µM
[18] = second compound 0.316 µM, first compound 1 µM
[19] = second compound 1 µM, first compound 0.00316 µM
[20] = second compound 1 µM, first compound 0.01 µM
[21] = second compound 1 µM, first compound 0.0316 µM
[22] = second compound 1 µM, first compound 0.1 µM
[23] = second compound 1 µM, first compound 0.316 µM
[24] = second compound 1 µM, first compound 1 µM
[25] = second compound 3.16 µM, first compound 0.00316 µM
[26] = second compound 3.16 µM, first compound 0.01 µM
[27] = second compound 3.16 µM, first compound 0.0316 µM
[28] = second compound 3.16 µM, first compound 0.1 µM
[29] = second compound 3.16 µM, first compound 0.316 µM
[30] = second compound 3.16 µM, first compound 1 µM
[31] = second compound 10 µM, first compound 0.00316 µM
[32] = second compound 10 µM, first compound 0.01 µM
[33] = second compound 10 µM, first compound 0.0316 µM
[34] = second compound 10 µM, first compound 0.1 µM
[35] = second compound 10 µM, first compound 0.316 µM
[36] = second compound 10 µM, first compound 1 µM

IC50 (second compound 0.0316 µM): > 1000 nM | IC50 (second compound 0.1 µM): > 1000 nM | IC50 (second compound 0.316 µM): > 1000 nM | IC50 (second compound 1 µM): > 1000 nM | IC50 (second compound 3.16 µM): > 1000 nM | IC50 (second compound 10 µM): > 1000 nM
Structure (SMILES): CCN1CCN(Cc2ccc(Nc3ncc(F)c(-c4cc(F)c5nc(C)n(C(C)C)c5c4)n3)nc2)CC1 + Cc1c(S(C)(=O)=O)c(-c2cc(F)cc(N3CCN(c4ccc(NS(=O)(=O)c5ccc(NC(CCN6CCC(C(=O)OCCCP(=O)(O)O)CC6)CSc6ccccc6)c(S(=O)(=O)C(F)(F)F)c5)cc4)CC3)c2)c(-c2ccc(Cl)cc2)n1C(C)C
viability, T/C [1]: 102% | viability, T/C [2]: 99.2% | viability, T/C [3]: 109% | viability, T/C [4]: 111% | viability, T/C [5]: 121% | viability, T/C [6]: 106% | viability, T/C [7]: 99.8% | viability, T/C [8]: 101% | viability, T/C [9]: 97.8% | viability, T/C [10]: 113% | viability, T/C [11]: 116% | viability, T/C [12]: 109% | viability, T/C [13]: 103% | viability, T/C [14]: 99.1% | viability, T/C [15]: 108% | viability, T/C [16]: 108% | viability, T/C [17]: 114% | viability, T/C [18]: 99.4% | viability, T/C [19]: 99.7% | viability, T/C [20]: 105% | viability, T/C [21]: 103% | viability, T/C [22]: 106% | viability, T/C [23]: 115% | viability, T/C [24]: 95.1% | viability, T/C [25]: 92.7% | viability, T/C [26]: 93.7% | viability, T/C [27]: 110% | viability, T/C [28]: 107% | viability, T/C [29]: 110% | viability, T/C [30]: 92.2% | viability, T/C [31]: 87.5% | viability, T/C [32]: 82.5% | viability, T/C [33]: 80% | viability, T/C [34]: 94.2% | viability, T/C [35]: 101% | viability, T/C [36]: 86.6%

IC50 (second compound 0.0316 µM): 19.3 nM | IC50 (second compound 0.1 µM): 18.1 nM | IC50 (second compound 0.316 µM): 15.3 nM | IC50 (second compound 1 µM): 10.2 nM | IC50 (second compound 3.16 µM): 5.98 nM | IC50 (second compound 10 µM): 4.59 nM
Structure (SMILES): Cn1ncnc1[C@H]1c2n[nH]c(=O)c3cc(F)cc(c23)N[C@@H]1c1ccc(F)cc1 + Cc1c(S(C)(=O)=O)c(-c2cc(F)cc(N3CCN(c4ccc(NS(=O)(=O)c5ccc(NC(CCN6CCC(C(=O)OCCCP(=O)(O)O)CC6)CSc6ccccc6)c(S(=O)(=O)C(F)(F)F)c5)cc4)CC3)c2)c(-c2ccc(Cl)cc2)n1C(C)C
viability, T/C (second compound 0.0316 µM, first compound 0.000316 µM): 108% | viability, T/C (second compound 0.0316 µM, first compound 0.001 µM): 96.5% | viability, T/C [1]: 99.6% | viability, T/C [2]: 80% | viability, T/C [3]: 27.4% | viability, T/C [4]: 6.64% | viability, T/C (second compound 0.1 µM, first compound 0.000316 µM): 97.6% | viability, T/C (second compound 0.1 µM, first compound 0.001 µM): 99% | viability, T/C [7]: 87.1% | viability, T/C [8]: 85.2% | viability, T/C [9]: 17.2% | viability, T/C [10]: 4.83% | viability, T/C (second compound 0.316 µM, first compound 0.000316 µM): 97.1% | viability, T/C (second compound 0.316 µM, first compound 0.001 µM): 95.4% | viability, T/C [13]: 94.5% | viability, T/C [14]: 73.6% | viability, T/C [15]: 9.3% | viability, T/C [16]: 3.79% | viability, T/C (second compound 1 µM, first compound 0.000316 µM): 93.4% | viability, T/C (second compound 1 µM, first compound 0.001 µM): 98.6% | viability, T/C [19]: 88.6% | viability, T/C [20]: 51.5% | viability, T/C [21]: 7.18% | viability, T/C [22]: 3.35% | viability, T/C (second compound 3.16 µM, first compound 0.000316 µM): 97.2% | viability, T/C (second compound 3.16 µM, first compound 0.001 µM): 89.5% | viability, T/C [25]: 80.1% | viability, T/C [26]: 26% | viability, T/C [27]: 4.8% | viability, T/C [28]: 2.64% | viability, T/C (second compound 10 µM, first compound 0.000316 µM): 85.9% | viability, T/C (second compound 10 µM, first compound 0.001 µM): 90% | viability, T/C [31]: 65.6% | viability, T/C [32]: 16.4% | viability, T/C [33]: 3.2% | viability, T/C [34]: 2.36%

IC50 (second compound 0.0316 µM): > 1000 nM | IC50 (second compound 0.1 µM): > 1000 nM | IC50 (second compound 0.316 µM): > 1000 nM | IC50 (second compound 1 µM): > 1000 nM | IC50 (second compound 3.16 µM): > 1000 nM | IC50 (second compound 10 µM): > 1000 nM
Structure (SMILES): O=C(c1ccc(F)c(F)c1Nc1ccc(I)cc1F)N1CC(O)([C@@H]2CCCCN2)C1 + Cc1c(S(C)(=O)=O)c(-c2cc(F)cc(N3CCN(c4ccc(NS(=O)(=O)c5ccc(NC(CCN6CCC(C(=O)OCCCP(=O)(O)O)CC6)CSc6ccccc6)c(S(=O)(=O)C(F)(F)F)c5)cc4)CC3)c2)c(-c2ccc(Cl)cc2)n1C(C)C
viability, T/C [1]: 98.2% | viability, T/C [2]: 102% | viability, T/C [3]: 106% | viability, T/C [4]: 99.6% | viability, T/C [5]: 110% | viability, T/C [6]: 113% | viability, T/C [7]: 95.3% | viability, T/C [8]: 101% | viability, T/C [9]: 97.1% | viability, T/C [10]: 102% | viability, T/C [11]: 103% | viability, T/C [12]: 99.8% | viability, T/C [13]: 95.7% | viability, T/C [14]: 93.6% | viability, T/C [15]: 94.2% | viability, T/C [16]: 106% | viability, T/C [17]: 99% | viability, T/C [18]: 104% | viability, T/C [19]: 91.6% | viability, T/C [20]: 89.5% | viability, T/C [21]: 100% | viability, T/C [22]: 98.9% | viability, T/C [23]: 102% | viability, T/C [24]: 97.1% | viability, T/C [25]: 91.9% | viability, T/C [26]: 92.1% | viability, T/C [27]: 87.2% | viability, T/C [28]: 99.8% | viability, T/C [29]: 101% | viability, T/C [30]: 93.4% | viability, T/C [31]: 85.8% | viability, T/C [32]: 81.3% | viability, T/C [33]: 92.2% | viability, T/C [34]: 85.6% | viability, T/C [35]: 71.8% | viability, T/C [36]: 67.6%
